Measurements from US10626436B2, “Method of determining a compositional or functional characteristic of a cell culture media” (Valitacell Limited, priority 2015, dated 2020).

Legend:
[1] = test system: reference CHO producer cell; experiment: Growth of reference CHO producer cell in static microplate culture with a cell stressor in four lots of the same cell culture media; type: cell-based; conditions: stressor at an inhibitory concentration, each in triplicate, FIGS. 3-5
Procedure: FIG. 3: A reference CHO producer cell was grown in static microplate culture in the presence of cobalt chloride (CoCL2) at an inhibitory concentration and four different lots of the same cell culture media (each lot provided in triplicate).
FIG. 4: A reference CHO producer cell was grown in static microplate culture in the presence of menadione sodium bisulphite (MSB2) at an inhibitory concentration and four different lots of the same cell culture media (each lot provided in triplicate).
FIG. 5: A reference CHO producer cell was grown in static microplate culture in the presence of sodium lactate (NaLac) at an inhibitory concentration and four different lots of the same cell culture media (each lot provided in triplicate).

CHO cell line = experiment: Chemical fingerprinting: growth of CHO cells with cell stressors in two CD-CHO media lots (Presto Blue assay); type: cell-based; conditions: CD-CHO media lot 66 vs lot 28; stressor at IC50 concentration, both MSB concentrations; FIG. 2; p<0.05 (Benjamini-Hockberg)
Procedure: Two different batches of “CD-CHO media” (Invitrogen, Paisley, UK) were obtained. A CHO cell line was grown in these […] media for 3 passages in 30 ml shake flask culture. “Presto Blue” (Invitrogen, Paisley, UK) was mixed 1:1 with CD-CHO media and 20 ul of this was added to each well. The plate was machine shaken and subsequently incubated for 30 minutes at 37 C in a static humidified incubator. After incubation the fluorescence of the wells was measured (excitation 535 nm emission 620 nm) using a fluoroskan ascent (Thermo-Fisher, Loughborough, UK) plate reader. […] It is clear here that there were significant differences in the cell growth in these different batches of media. This was clearly significant from day 4 onwards.
To test the effect this had on the chemical fingerprint, CHO cells were sub-cultured in CD-CHO in either lot number (66) or (28) for 3 passages. Chemical fingerprinting plates were set up in duplicate to determine the growth of cells in the presence of specific cellular stressors
Using the same CHO cell line used above for the growth studies, inhibitory dose 50 (IC50) concentrations of the above chemicals were identified through growth studies. […]
After this period the level of cell growth in the plates (i.e. in the presence and absence of chemicals as mentioned above) was measured using the “Presto Blue” assay as described above. […]

| SMILES | growth response of the cell in different lots of the cell culture media in the presence of the stressor [1] | chemical response (cell growth relative to control well) compared between media lots (CHO cell line) |
| --- | --- | --- |
| [Cl][Co][Cl] [cobalt chloride, Cobalt chloride] | differences in growth response |  |
| CC(O)C(=O)[O-].[Na+] (stereo not shown) [sodium lactate, Sodium lactate] | differences in growth response |  |
| CC1(S(=O)(=O)[O-])CC(=O)c2ccccc2C1=O.[Na+] (stereo not shown) [MSB, Menadione Sodium Bisulphite] | differences in growth response | clearly significant difference |
